# Test results as given in BindingDB's records for doi:10.1016/s0960-894x(02)00489-4 (University of Antwerp (Uia), 2002).
# Where a SMILES comes first, the peptide text is derived from it.
# Target: T1, Glutathionylspermidine synthase (Crithidia fasciculata, UniProt P90518)
# T1 sequence (P90518 whole entry): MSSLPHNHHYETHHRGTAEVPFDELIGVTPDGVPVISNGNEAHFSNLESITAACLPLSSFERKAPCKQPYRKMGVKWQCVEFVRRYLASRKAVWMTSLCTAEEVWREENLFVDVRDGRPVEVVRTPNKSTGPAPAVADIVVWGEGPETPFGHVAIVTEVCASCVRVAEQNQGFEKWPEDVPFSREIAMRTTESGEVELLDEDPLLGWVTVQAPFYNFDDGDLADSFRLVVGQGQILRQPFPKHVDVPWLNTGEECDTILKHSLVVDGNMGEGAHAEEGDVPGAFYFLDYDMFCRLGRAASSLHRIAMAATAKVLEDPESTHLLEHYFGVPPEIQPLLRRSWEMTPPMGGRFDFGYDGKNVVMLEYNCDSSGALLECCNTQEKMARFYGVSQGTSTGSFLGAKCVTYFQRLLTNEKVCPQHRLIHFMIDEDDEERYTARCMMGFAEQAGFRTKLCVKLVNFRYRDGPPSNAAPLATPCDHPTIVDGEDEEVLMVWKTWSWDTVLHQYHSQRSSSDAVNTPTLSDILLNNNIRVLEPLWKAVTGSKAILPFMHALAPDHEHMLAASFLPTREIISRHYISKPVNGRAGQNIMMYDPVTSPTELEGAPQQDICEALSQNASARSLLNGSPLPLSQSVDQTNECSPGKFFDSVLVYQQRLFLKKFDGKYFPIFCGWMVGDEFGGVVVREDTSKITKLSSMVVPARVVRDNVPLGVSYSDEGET
# Test: Inhibitory activity against amidase free Glutathionylspermidine Synthetase mutant (C79A)
compound,measurement,value
CC(C)C[C@H](NC(=O)CC[C@H](N)C(=O)O)C(=O)NCC(N)=O [2-Amino-4-[1-(carbamoylmethyl-carbamoyl)-3-methyl-butylcarbamoyl]-butyric acid] (HELM PEPTIDE1{[gGlu].L.G.[am]}$$$$V2.0),IC50,> 2000 nM
